The values below are quoted from earlier work in patent publication US7214684B2, “Methods for the treatment of allergic rhinitis” (Sepracor Inc., priority 1994, dated 2007).

The subject of data set [1] is melanoma and fibrosarcoma tumors. The note with it: Brandes et al. 1994.
Another data set concerns the target H-2 histamine receptor (Homo sapiens, UniProt P25021). The note with it: H-2 receptor-mediated response.

Chain of H-2 histamine receptor (P25021 whole entry): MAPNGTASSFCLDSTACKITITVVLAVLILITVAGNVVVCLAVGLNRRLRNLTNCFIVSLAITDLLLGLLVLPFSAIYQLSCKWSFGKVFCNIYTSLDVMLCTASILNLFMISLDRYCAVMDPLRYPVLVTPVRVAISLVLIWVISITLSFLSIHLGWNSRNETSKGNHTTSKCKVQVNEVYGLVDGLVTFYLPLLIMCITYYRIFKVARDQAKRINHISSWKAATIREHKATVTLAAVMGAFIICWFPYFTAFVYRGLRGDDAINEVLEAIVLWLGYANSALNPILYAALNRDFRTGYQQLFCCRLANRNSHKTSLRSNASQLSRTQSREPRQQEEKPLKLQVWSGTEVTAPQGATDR

In the case of `COc1ccc(CCN2CCC(Nc3nc4ccccc4n3Cc3ccc(F)cc3)CC2)cc1` [astemizole], in data set [1], the “association with tumor growth” value is “associated with growth of both melanoma and fibrosarcoma tumors”.

For the compound `CCOC(=O)N1CCC(=C2c3ccc(Cl)cc3CCc3cccnc32)CC1` [Loratadine], on H-2 histamine receptor, the “effect on the chronotropic effect of histamine on atria” value is “nor does it alter”. Besides, in data set [1], the “association with tumor growth” value was “associated with growth of both melanoma and fibrosarcoma tumors”.
